Measurements published in PubChem BioAssay AID248 (DTP/NCI, 2004).
Where “and” joins values, the source holds several entries; their conditions need not be identical. Equal values may be shown once. Toxic doses and inconclusive results are not listed. No stated cut-off is given here; in the data, active means T/C of 150% or more; inactive means T/C below 125%.

Tested on: L1210 leukemia ip in BDF1 mice, survival T/C
Assay: NCI In Vivo Anticancer Drug Screen. Data for tumor model L1210 Leukemia (intraperitoneal) in B6D2F1 (BDF1) mice
Conditions: endpoint: mean survival time, higher = longer survival
Procedure, shortened: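 Read-out is survival time, reported as the treated-group measurement over the vehicle-control measurement.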

[1] = dose: 100.0 mg/kg/injection, schedule: Q04DX003 (ip), vehicle: saline with Tween-80
[2] = dose: 200.0 mg/kg/injection, schedule: Q04DX003 (ip), vehicle: saline with Tween-80
[3] = dose: 400.0 mg/kg/injection, schedule: Q04DX003 (ip), vehicle: saline with Tween-80
[4] = dose: 50.0 mg/kg/injection, schedule: Q01DX009 (ip), vehicle: saline with Tween-80
[5] = dose: 150.0 mg/kg/injection, schedule: Q01DX009 (ip), vehicle: Klucel (hydroxypropylcellulose) (HPC)

Measured: T/C

Cc1ccc(CN(CCO)Cc2ccccc2)cc1
inactive: dose: 3.12 mg/kg/injection, schedule: Q01DX009 (ip), vehicle: water 86 % of control | dose: 6.25 mg/kg/injection, schedule: Q01DX009 (ip), vehicle: water 89 % of control | dose: 12.5 mg/kg/injection, schedule: Q01DX009 (ip), vehicle: water 93 % of control and 100 % of control | dose: 50.0 mg/kg/injection, schedule: Q01DX009 (ip), vehicle: water 93 % of control

O=C(NC1CCCCC1)C1C2CC3OC(=O)C1C3C2 (configuration not stated)
inactive: [1] 101 % of control | dose: 100.0 mg/kg/injection, schedule: Q04DX003 (ip), vehicle: saline 104 % of control | [2] 97 % of control | dose: 200.0 mg/kg/injection, schedule: Q04DX003 (ip), vehicle: saline 98 % of control | [3] 101 % of control | dose: 400.0 mg/kg/injection, schedule: Q04DX003 (ip), vehicle: saline 104 % of control

c1ccc(NP2(Nc3ccccc3)=NP(Nc3ccccc3)(Nc3ccccc3)=NP(Nc3ccccc3)(Nc3ccccc3)=N2)cc1
inactive: dose: 75.0 mg/kg/injection, schedule: Q01DX001 (ip), vehicle: saline 96 % of control | dose: 100.0 mg/kg/injection, schedule: Q04DX003 (ip), vehicle: Klucel (hydroxypropylcellulose) (HPC) 99 % of control | dose: 150.0 mg/kg/injection, schedule: Q01DX001 (ip), vehicle: saline 101 % of control | dose: 200.0 mg/kg/injection, schedule: Q04DX003 (ip), vehicle: Klucel (hydroxypropylcellulose) (HPC) 89 % of control | dose: 300.0 mg/kg/injection, schedule: Q01DX001 (ip), vehicle: saline 91 % of control

CC1(C)N=C(N)N=C(N)N1c1cccc(CC(=O)Nc2ccc(S(=O)(=O)F)cc2)c1
inactive: dose: 0.8 mg/kg/injection, schedule: Q01DX009 (ip), vehicle: saline 101 % of control | dose: 4.0 mg/kg/injection, schedule: Q01DX009 (ip), vehicle: saline 100 % of control | dose: 20.0 mg/kg/injection, schedule: Q01DX009 (ip), vehicle: saline 110 % of control | dose: 25.0 mg/kg/injection, schedule: Q01DX009 (ip), vehicle: Klucel (hydroxypropylcellulose) (HPC) 108 % of control | dose: 25.0 mg/kg/injection, schedule: Q01DX009 (ip), vehicle: saline with Tween-80 103 % of control | dose: 50.0 mg/kg/injection, schedule: Q01DX009 (ip), vehicle: Klucel (hydroxypropylcellulose) (HPC) 113 % of control | [4] 100 % of control | dose: 88.0 mg/kg/injection, schedule: Q01DX009 (ip), vehicle: saline with Tween-80 102 % of control | dose: 100.0 mg/kg/injection, schedule: Q01DX009 (ip), vehicle: Klucel (hydroxypropylcellulose) (HPC) 109 % of control | dose: 100.0 mg/kg/injection, schedule: Q01DX009 (ip), vehicle: saline 117 % of control | dose: 132.0 mg/kg/injection, schedule: Q01DX009 (ip), vehicle: saline with Tween-80 121 % of control | [5] 105 % of control | dose: 300.0 mg/kg/injection, schedule: Q01DX009 (ip), vehicle: saline with Tween-80 89 % of control

Cc1ncc(CO)c(Cc2ccccc2N(C)C)c1O
inactive: dose: 100.0 mg/kg/injection, schedule: Q04DX002 (ip), vehicle: saline with Tween-80 92 % of control | dose: 200.0 mg/kg/injection, schedule: Q04DX002 (ip), vehicle: saline with Tween-80 95 % of control

NC(=O)c1cn(C2OC(CO)C(O)C2O)c2ncn3ccnc3c12 (configuration not stated)
inactive: dose: 6.25 mg/kg/injection, schedule: Q01DX005 (ip), vehicle: saline 101 % of control | dose: 12.5 mg/kg/injection, schedule: Q01DX005 (ip), vehicle: saline 106 % of control

CCSCCC(N)C(=O)O (configuration not stated)
inactive: dose: 10.25 mg/kg/injection, schedule: Q01DX Z (ip), vehicle: carboxymethylcellulose (CMC) 97 % of control | dose: 18.75 mg/kg/injection, schedule: Q01DX Z (ip), vehicle: carboxymethylcellulose (CMC) 91 % of control | dose: 20.5 mg/kg/injection, schedule: Q01DX Z (ip), vehicle: carboxymethylcellulose (CMC) 113 % of control | dose: 37.5 mg/kg/injection, schedule: Q01DX Z (ip), vehicle: carboxymethylcellulose (CMC) 93 % of control | dose: 41.0 mg/kg/injection, schedule: Q01DX Z (ip), vehicle: carboxymethylcellulose (CMC) 103 % of control | dose: 75.0 mg/kg/injection, schedule: Q01DX Z (ip), vehicle: carboxymethylcellulose (CMC) 96 % of control | dose: 82.0 mg/kg/injection, schedule: Q01DX Z (ip), vehicle: carboxymethylcellulose (CMC) 103 % of control | dose: 100.0 mg/kg/injection, schedule: Q01DX001 (ip), vehicle: carboxymethylcellulose (CMC) 102 % of control | dose: 150.0 mg/kg/injection, schedule: Q01DX Z (ip), vehicle: carboxymethylcellulose (CMC) 100 % of control | dose: 200.0 mg/kg/injection, schedule: Q01DX001 (ip), vehicle: carboxymethylcellulose (CMC) 107 % of control | dose: 400.0 mg/kg/injection, schedule: Q01DX001 (ip), vehicle: carboxymethylcellulose (CMC) 95 % of control

O=C(NCCNC(=O)c1cccc([N+](=O)[O-])c1O)c1cccc([N+](=O)[O-])c1O
inactive: [1] 96 % of control | [2] 95 % of control | [3] 90 % of control

O=C(OCCCC(C(=O)c1ccccc1)=P(c1ccccc1)(c1ccccc1)c1ccccc1)c1ccccc1
inactive: dose: 100.0 mg/kg/injection, schedule: Q01DX001 (ip), vehicle: saline with Tween-80 104 % of control | dose: 200.0 mg/kg/injection, schedule: Q01DX001 (ip), vehicle: saline with Tween-80 93 % of control | dose: 400.0 mg/kg/injection, schedule: Q01DX001 (ip), vehicle: saline with Tween-80 93 % of control

Cc1ccc(S(=O)(=O)N2CC(O)C(O)C2Cn2cnc3c(N)ncnc32)cc1 (configuration not stated)
inactive: dose: 50.0 mg/kg/injection, schedule: Q04DX002 (ip), vehicle: saline 96 % of control | dose: 100.0 mg/kg/injection, schedule: Q04DX002 (ip), vehicle: saline 102 % of control | dose: 200.0 mg/kg/injection, schedule: Q04DX002 (ip), vehicle: saline 102 % of control

COC1CC2C=CC1C2 (configuration not stated)
inactive: [4] 92 % of control | dose: 100.0 mg/kg/injection, schedule: Q01DX009 (ip), vehicle: saline with Tween-80 89 % of control | dose: 200.0 mg/kg/injection, schedule: Q01DX009 (ip), vehicle: saline with Tween-80 92 % of control

CCC(C)NC(=O)C1C2CC3OC(=O)C1C3C2 (configuration not stated)
inactive: [1] 106 % of control and 98 % of control | [2] 101 % of control and 98 % of control | [3] 95 % of control and 98 % of control

CCN(CC)CC[N-]CCN(CC)CC.[Cl][Pt]
inactive: dose: 100.0 mg/kg/injection, schedule: Q01DX001 (ip), vehicle: saline 97 % of control

CCCCC(CC)CNC1CCCCC1 (configuration not stated)
inactive: dose: 75.0 mg/kg/injection, schedule: Q01DX009 (ip), vehicle: Klucel (hydroxypropylcellulose) (HPC) 98 % of control | dose: 100.0 mg/kg/injection, schedule: Q04DX002 (ip), vehicle: Klucel (hydroxypropylcellulose) (HPC) 101 % of control | [5] 101 % of control | dose: 200.0 mg/kg/injection, schedule: Q04DX002 (ip), vehicle: Klucel (hydroxypropylcellulose) (HPC) 97 % of control

Cn1c(=O)cc(CC(=O)O)c2ccccc21
inactive: dose: 100.0 mg/kg/injection, schedule: Q01DX001 (ip), vehicle: other 95 % of control | dose: 200.0 mg/kg/injection, schedule: Q01DX001 (ip), vehicle: other 95 % of control | dose: 400.0 mg/kg/injection, schedule: Q01DX001 (ip), vehicle: other 98 % of control

CC12CCC(=O)C=C1CCC1C2C(O)CC2(C)C1CCC2(O)C(=O)CSc1ncnc2nc[nH]c12 (configuration not stated)
inactive: dose: 50.0 mg/kg/injection, schedule: Q01DX001 (sc), vehicle: steriod suspending solution 96 % of control | dose: 100.0 mg/kg/injection, schedule: Q01DX001 (sc), vehicle: steriod suspending solution 94 % of control and 108 % of control | dose: 200.0 mg/kg/injection, schedule: Q01DX001 (sc), vehicle: steriod suspending solution 105 % of control and 108 % of control | dose: 400.0 mg/kg/injection, schedule: Q01DX001 (sc), vehicle: steriod suspending solution 97 % of control and 102 % of control

CCCCS(=O)c1nc2ccccc2s1 (configuration not stated)
inactive: dose: 100.0 mg/kg/injection, schedule: Q04DX002 (ip), vehicle: other 88 % of control | dose: 200.0 mg/kg/injection, schedule: Q04DX002 (ip), vehicle: other 91 % of control
